In patent US20130216649A1, “MOUTH-MOISTENING GUM COMPOSITIONS AND PRODUCTS CONTAINING THE SAME” (Kraft Foods Global Brands LLC, priority 2010, published 2013):

Assay: Effect of the spilanthol amount in a chewing gum formulation (taste, mouth moistening)
Type: in vivo
Settings: below 75 ppm in a chewing gum formulation

SMILES: C/C=C/C=C\CC/C=C/C(=O)NCC(C)C [spilanthol, N-isobutyl-2E,6Z,8E-decatrienamide]
- effectiveness for mouth-moistening purposes: insufficient
